Patent US12370235B2, “Synthetic, non-natural antimicrobial peptides inspired by Staphylococcus auricularis delta toxin” (University of Saskatchewan, priority 2021, dated 2025)
Ends that are not written are not given here.

What was measured:
[1] = Circular dichroism spectroscopy; type: physicochemical; conditions: CD, 50% (v/v) TFE
Text: The δ-toxins and the PSMs are characterized as α-helical peptides that form amyloid fibers^48. Although the propensity of individual peptides to form amyloids is correlated to their cytotoxicity^49, the amyloid form is not directly implicated in cell membrane disruption^50. […] CD spectroscopy was used to investigate the secondary structure of a subset of peptides within the collection (FIG. 4A, Table 5). The STIP variants adopted α-helical forms in 50% (v/v) trifluoroethanol (TFE), though unlike the full-length S. auricularis δ-toxin, they were unstructured in water. […] Specifically, peptides characterized by the greatest and least α-helical content in TFE had MICs above the highest tested threshold.
Circular dichroism spectroscopy. Peptides were dissolved in water at concentrations between 0.3 and 0.5 mg/mL. CD spectra were recorded on an Applied Photophysics Chirascan Plus CD spectrophotometer at room temperature in a 0.1 cm path-length quartz cuvette. Spectra were recorded from 180 to 260 nm.

C. albicans Y537 = assay: MIC, YPD broth; type: cell-based, Candida albicans; conditions: Table 8
C. albicans MYA-2876 = assay: MIC, YPD broth; type: cell-based, Candida albicans; conditions: Table 8
Method in brief: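 Minimum inhibitory concentrations against Candida albicans were determined in YPD broth (10 g/L yeast extract, 20 g/L peptone, 20 g/L dextrose) using peptides of 95% purity. A 180 μl volume of diluted yeast was combined with 20 μl of peptide in a 2-fold dilution series in 96-well plates, with sterile water as control, then incubated standing overnight at 37° C.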

[2] = test system: Candida duobushaemulonii AR 394; assay: MIC, YPD broth, CDC and FDA AR Candida isolate panel; type: cell-based; conditions: Table 9 below the line: only 200 or 100 μg/mL tested; values reported as 100 are ≤100 μg/mL
Method in brief: (§1)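 Peptide purity was 95%. Doubling dilutions were tested against yeast set at an optical density of […], with overnight standing incubation at 37° C and a sterile-water control.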

[3] = test system: Candida duobushaemulonii AR 391; assay: as above; type: cell-based; conditions: Table 9 below the line: only 200 or 100 μg/mL tested; values reported as 100 are ≤100 μg/mL
Method in brief: as §1

[4] = test system: Candida lusitaniae AR 398; assay: as above; type: cell-based; conditions: Table 9 below the line: only 200 or 100 μg/mL tested; values reported as 100 are ≤100 μg/mL
Method in brief: as §1

[5] = test system: Candida haemulonii AR 395; assay: as above; type: cell-based; conditions: Table 9 below the line: only 200 or 100 μg/mL tested; values reported as 100 are ≤100 μg/mL
Method in brief: as §1

[6] = test system: Saccharomyces cerevisiae AR 399; assay: as above; type: cell-based; conditions: Table 9 below the line: only 200 or 100 μg/mL tested; values reported as 100 are ≤100 μg/mL
Method in brief: as §1

[7] = test system: Candida haemulonii AR 393; assay: as above; type: cell-based; conditions: Table 9 below the line: only 200 or 100 μg/mL tested; values reported as 100 are ≤100 μg/mL
Method in brief: as §1

[8] = test system: Saccharomyces cerevisiae AR 400; assay: as above; type: cell-based; conditions: Table 9 below the line: only 200 or 100 μg/mL tested; values reported as 100 are ≤100 μg/mL
Method in brief: as §1

Kodamae ohmeri AR 396 = assay: as above; type: cell-based; conditions: Table 9 below the line: only 200 or 100 μg/mL tested; values reported as 100 are ≤100 μg/mL
Method in brief: as §1

[9] = test system: Candida duobushaemulonii AR 392; assay: as above; type: cell-based; conditions: Table 9 below the line: only 200 or 100 μg/mL tested; values reported as 100 are ≤100 μg/mL
Method in brief: as §1

Candida krusei AR 397 = assay: as above; type: cell-based; conditions: Table 9 below the line: only 200 or 100 μg/mL tested; values reported as 100 are ≤100 μg/mL
Method in brief: as §1

[10] = test system: Mannheimia haemolytica ATCC 33393; assay: MIC, broth dilution; type: cell-based; conditions: Table 11; highest concentration 25 μg/mL
Method in brief: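 Peptides (95% purity) in 2-fold dilution series were mixed with M. haemolytica diluted to OD 6×10^−4 in cation-adjusted Mueller Hinton broth and incubated standing overnight at 37 °C. MIC was the lowest concentration with no visible growth.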

[11] = test system: S. aureus ATCC BAA-41 (MRSA SCCmec type II); assay: MIC, broth dilution; type: cell-based, Staphylococcus aureus; conditions: Table 5; STIP3 variants, highest concentration 100 μg/mL
Method in brief: (§2)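 Peptides of 95% purity tested as 2-fold dilution series against bacteria diluted to OD 6×10^−4 in cation-adjusted Mueller Hinton broth. Standing cultures incubated overnight at 37° C; MIC is the lowest concentration with no visible growth.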

[12] = test system: S. aureus ATCC BAA-42 (MRSA SCCmec type VI); assay: MIC, broth dilution; type: cell-based, Staphylococcus aureus; conditions: Table 5; STIP3 variants, highest concentration 100 μg/mL
Method in brief: as §2

[13] = test system: S. aureus ATCC BAA-2313 (MRSA SCCmec type XI); assay: MIC, broth dilution; type: cell-based, Staphylococcus aureus; conditions: Table 5; STIP3 variants, highest concentration 100 μg/mL
Method in brief: as §2

[14] = test system: S. aureus ATCC BAA-2094 (MRSA SCCmec type V); assay: MIC, broth dilution; type: cell-based, Staphylococcus aureus; conditions: Table 5; STIP3 variants, highest concentration 100 μg/mL
Method in brief: as §2

[15] = test system: S. aureus ATCC BAA-44 (MRSA SCCmec type I); assay: MIC, broth dilution; type: cell-based, Staphylococcus aureus; conditions: Table 5; STIP3 variants, highest concentration 100 μg/mL
Method in brief: as §2

[16] = test system: S. aureus ATCC BAA-1683 (MRSA SCCmec type IV); assay: MIC, broth dilution; type: cell-based, Staphylococcus aureus; conditions: Table 5; STIP3 variants, highest concentration 100 μg/mL
Method in brief: as §2

[17] = test system: S. aureus ATCC 33592 (MRSA SCCmec type III); assay: MIC, broth dilution; type: cell-based, Staphylococcus aureus; conditions: Table 5; STIP3 variants, highest concentration 100 μg/mL
Method in brief: as §2

S. aureus ATCC 29213 = assay: MIC, broth dilution; type: cell-based, Staphylococcus aureus; conditions: Table 5; STIP3 variants, highest concentration 100 μg/mL
Method in brief: as §2

[18] = test system: S. aureus / MRSA (ATCC MP-2 panel); type: cell-based, Staphylococcus aureus; conditions: MIC screen, in words
Description: In order to begin to characterize STIP3-1 and potential sites amenable to modification, an alanine scanning experiment was performed. A total of 16 peptides with single alanine substitutions were assessed to inform on the importance of individual residues to antimicrobial activity. […] Next a series of thirty STIP3-1 variants were designed, guided by the aforementioned alanine scan and a previous report that the central α-helical core of the S. aureus δ-toxin could be converted into AMP through the inclusion of additional lysine residues^39. The collection included ten members with single substitutions relative to STIP3-1 and others that incorporated a number of changes that were designed to increase overall and local cationic charge as well as hydrophobic character (Table 5). Each of the STIPs was screened, including STIP3-1 to STIP-31, for antibiotic activity against a methicillin-sensitive S. aureus test organism and a panel of 7 MRSA strains defined by distinct SCCmec genotypes (FIG. 2; ATCC MP-2).
Determination of minimum inhibitory concentrations. The MICs were measured for bioactive peptides identified from the initial screen. For bacterial studies, cation-adjusted Mueller Hinton (MH) broth was used as the growth medium whereas YPD was used for C. albicans. Bacterial cultures were diluted to a OD value of 6×10^−4 in MH broth and a 180 μl volume was mixed with 20 μl of peptide arrayed as 2-fold dilution series in a 96-well plate. For the positive control, 20 μl of sterile water was used. Plates were incubated as standing cultures overnight at 37° C. The lowest peptide concentration that resulted no observed microbial growth after an overnight treatment was defined as the MIC.

Row | Substance | MIC C. albicans MYA-2876 (C. albicans MYA-2876) | MIC (μg/mL) Candida duobushaemulonii AR 394 [2] | MIC (μg/mL) Candida duobushaemulonii AR 391 [3] | MIC (μg/mL) Candida lusitaniae AR 398 [4] [µg/mL] | MIC (μg/mL) Candida haemulonii AR 395 [5] | MIC (μg/mL) Saccharomyces cerevisiae AR 399 [6] [µg/mL] | MIC (μg/mL) Candida haemulonii AR 393 [7] | MIC (μg/mL) Saccharomyces cerevisiae AR 400 [8] [µg/mL] | MIC (μg/mL) Kodamae ohmeri AR 396 (Kodamae ohmeri AR 396) | MIC (μg/mL) Candida duobushaemulonii AR 392 [9] | MIC (μg/mL) Candida krusei AR 397 (Candida krusei AR 397) | MIC (μg/mL) M. haemolytica [10] | MIC S. aureus ATCC BAA 41 (II) [11] | MIC S. aureus ATCC BAA 42 (VI) [12] | MIC S. aureus ATCC BAA 2313 (XI) [13] | MIC S. aureus ATCC BAA 2094 (V) [14] | MIC S. aureus ATCC BAA 44 (I) [15] | MIC S. aureus ATCC BAA 1683 (IV) [16] | MIC S. aureus ATCC 33592 (III) [17] | MIC S. aureus ATCC 29213 (S. aureus ATCC 29213) | other results
1 | TVGGLVKWILATVKKFA-NH2 [STIP3-28, TVGGLVKWILATVKKFA-NH2] | 12.5 µg/mL | > (values below the line were determined using two concentrations of peptide 200 or 100 μg/mL) | > (values below the line were determined using two concentrations of peptide 200 or 100 μg/mL) | ≤ 100 | ≤ 100 µg/mL | ≤ 100 | > (values below the line were determined using two concentrations of peptide 200 or 100 μg/mL) | ≤ 100 | ≤ 100 µg/mL | > (values below the line were determined using two concentrations of peptide 200 or 100 μg/mL) | ≤ 100 µg/mL | 12.5 µg/mL | 12.5 µg/mL | 12.5 µg/mL | 12.5 µg/mL | 6.25 µg/mL | 12.5 µg/mL | 12.5 µg/mL | 6.25 µg/mL | 25 µg/mL | α helicity (%) [1]: 75%; MIC C. albicans Y537 (C. albicans Y537): 25 µg/mL
2 | TVGVLVKWILNVVAKFA [STIP3-24, TVGVLVKWILNVVAKFA] | > (> symbol indicates that no inhibition was observed at the highest concentration of peptide tested: 100 μg/mL) | > (values below the line were determined using two concentrations of peptide 200 or 100 μg/mL) | > (values below the line were determined using two concentrations of peptide 200 or 100 μg/mL) | ≤ 100 | > (values below the line were determined using two concentrations of peptide 200 or 100 μg/mL) | ≤ 100 | > (values below the line were determined using two concentrations of peptide 200 or 100 μg/mL) | ≤ 100 | > (values below the line were determined using two concentrations of peptide 200 or 100 μg/mL) | > (values below the line were determined using two concentrations of peptide 200 or 100 μg/mL) | > (values below the line were determined using two concentrations of peptide 200 or 100 μg/mL) | > (> symbol indicates that no inhibition was observed at the highest concentration of peptide tested: 25 μg/mL) | > (no inhibition was observed at the highest concentration of peptide tested: 100 μg/mL for the STIP3 variants) | > (no inhibition was observed at the highest concentration of peptide tested: 100 μg/mL for the STIP3 variants) | > (no inhibition was observed at the highest concentration of peptide tested: 100 μg/mL for the STIP3 variants) | > (no inhibition was observed at the highest concentration of peptide tested: 100 μg/mL for the STIP3 variants) | > (no inhibition was observed at the highest concentration of peptide tested: 100 μg/mL for the STIP3 variants) | > (no inhibition was observed at the highest concentration of peptide tested: 100 μg/mL for the STIP3 variants) | > (no inhibition was observed at the highest concentration of peptide tested: 100 μg/mL for the STIP3 variants) | > (no inhibition was observed at the highest concentration of peptide tested: 100 μg/mL for the STIP3 variants) | inhibition of S. aureus [18]: incapable of inhibiting S. aureus
